Active and inactive are the calls of the source. No cut-off for these calls is given here.
How the values were obtained:
Hep 3B2 [1] = assay: Induction of apoptosis in human Hep3B cells assessed as viable cells at 1 uM measured after 72 hrs by Annexin V-FITC/PI staining based flow cytometry (reference value: 94.08 %); type: functional; conditions: read-out: Activity
Hep 3B2 [2] = assay: Induction of apoptosis in human Hep3B cells assessed as necrotic cells at 10 uM measured after 72 hrs by Annexin V-FITC/PI staining based flow cytometry (reference value: 2.74 %); type: functional
HCCLM3 [3] = assay: Antiproliferative activity against NMN/NAMN-treated human HCCLM3 cells incubated for 120 hrs by MTT assay; type: functional, cell-based
Hep 3B2 [4] = assay: Induction of cell cycle arrest at G0/G1 phase in human Hep3B cells at 5 uM measured after 72 hrs by PI/RNase staining based flow cytometry (reference value: 56.73 %); type: functional
Hep 3B2 [5] = assay: Induction of cell cycle arrest at S phase in human Hep3B cells at 10 uM measured after 72 hrs by PI/RNase staining based flow cytometry (reference value: 31.90 %); type: functional
[6] = molecular target: T1, Bromodomain-containing protein 4 (Homo sapiens, UniProt O60885); assay: Inhibition of BRD4 BD1/2 (unknown origin) incubated for 120 mins by TR-FRET assay
HCCLM3 [7] = assay: Antitumor activity against human HCCLM3 cells xenografted in BALB/c nude mouse at 80 mg/kg, ip for 27 days relative to control; type: functional; conditions: HCCLM3, 648 h, time 27 day, read-out: TGI
[8] = molecular target: T2, Nicotinamide phosphoribosyltransferase (Homo sapiens, UniProt P43490); assay: Inhibition of NAMPT in human HCCLM3 cells assessed as decrease in NAD+ level at 10 uM measured after 72 hrs by WST-8 assay; type: cell-based
Target sequence in this assay (P43490 whole entry, looked up): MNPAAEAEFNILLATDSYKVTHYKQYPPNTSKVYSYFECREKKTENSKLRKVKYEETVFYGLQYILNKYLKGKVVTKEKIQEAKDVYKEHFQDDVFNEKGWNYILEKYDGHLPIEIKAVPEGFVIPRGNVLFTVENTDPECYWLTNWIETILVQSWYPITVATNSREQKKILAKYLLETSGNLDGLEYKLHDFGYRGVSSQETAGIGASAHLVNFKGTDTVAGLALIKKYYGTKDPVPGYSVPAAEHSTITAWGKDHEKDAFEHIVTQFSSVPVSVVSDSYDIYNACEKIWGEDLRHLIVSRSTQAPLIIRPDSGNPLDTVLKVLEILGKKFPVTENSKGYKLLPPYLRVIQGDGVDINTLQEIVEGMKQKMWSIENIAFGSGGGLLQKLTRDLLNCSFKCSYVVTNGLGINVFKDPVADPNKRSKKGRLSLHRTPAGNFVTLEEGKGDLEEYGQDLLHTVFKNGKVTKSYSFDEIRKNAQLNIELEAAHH

HCCLM3 [9] = assay: Antitumor activity against human HCCLM3 cells xenografted in BALB/c nude mouse assessed as tumor growth suppression administered intraperitoneally for 27 days; type: functional; conditions: dose 40-80 mg/kg, route ip, time 27.0 day
[10] = molecular target: T1, Bromodomain-containing protein 4; assay: Inhibition of BRD4 in human Hep3B cells assessed as decrease in YAP1 level at 1 to 10 uM measured after 72 hrs by immunoblot analysis; type: cell-based; conditions: dose 1-10 µM
[11] = molecular target: T1, Bromodomain-containing protein 4; assay: Inhibition of BRD4 BD2 (unknown origin) incubated for 120 mins by TR-FRET assay
HCCLM3 [12] = assay: Antiproliferative activity against NAMN-treated human HCCLM3 cells incubated for 120 hrs by MTT assay; type: functional, cell-based
[13] = Antiproliferative activity against human LX2 cells incubated for 120 hrs by MTT assay; type: toxicity, cell-based; conditions: LX-2 cells
[14] = molecular target: T1, Bromodomain-containing protein 4; assay: Inhibition of BRD4 (unknown origin) incubated for 120 mins by TR-FRET assay
Hep 3B2 [15] = assay: Induction of apoptosis in human Hep3B cells assessed as viable cells at 5 uM measured after 72 hrs by Annexin V-FITC/PI staining based flow cytometry (reference value: 94.08 %); type: functional; conditions: read-out: Activity
Hep 3B2 [16] = assay: Antiproliferative activity against NMN-treated human Hep3B cells incubated for 120 hrs by MTT assay; type: functional, cell-based
HCCLM3 [17] = assay: In vivo inhibition of NAMPT in human HCCLM3 cells xenografted in BALB/c nude mouse assessed as reduction in NAD+ level in tumor tissue administered intraperitoneally for 27 days; type: functional, organism-based; conditions: dose 40-80 mg/kg, route ip, time 27.0 day
Hep 3B2 [18] = assay: Induction of apoptosis in human Hep3B cells assessed as late apoptotic cells at 1 uM measured after 72 hrs by Annexin V-FITC/PI staining based flow cytometry (reference value: 1.05 %); type: functional
Hep 3B2 [19] = assay: Antiproliferative activity against NMN/NAMN-treated human Hep3B cells incubated for 120 hrs by MTT assay; type: functional, cell-based
Hep 3B2 [20] = assay: Antiproliferative activity against NAMN-treated human Hep3B cells incubated for 120 hrs by MTT assay; type: functional, cell-based
[21] = molecular target: Bromodomain-containing protein 3 (Homo sapiens, UniProt Q15059); assay: Inhibition of BRD3 BD1/2 (unknown origin) incubated for 120 mins by TR-FRET assay
[22] = molecular target: Bromodomain-containing protein 2 (Homo sapiens, UniProt P25440); assay: Inhibition of BRD2 BD1/2 (unknown origin) incubated for 120 mins by TR-FRET assay
Hep 3B2 [23] = assay: Induction of cell cycle arrest at S phase in human Hep3B cells at 1 uM measured after 72 hrs by PI/RNase staining based flow cytometry (reference value: 31.90 %); type: functional
[24] = molecular target: T2, Nicotinamide phosphoribosyltransferase; assay: Inhibition of NAMPT in human Hep3B cells assessed as decrease in NAD+ level at 10 uM measured after 72 hrs by WST-8 assay; type: cell-based
Target sequence in this assay (P43490 whole entry, looked up): as above

Hep 3B2 [25] = assay: cells; conditions: Homo sapiens, Hep3B, 120 h
[26] = molecular target: T1, Bromodomain-containing protein 4; assay: Inhibition of BRD4 in human Hep3B cells assessed as decrease in c-Myc level at 1 to 10 uM measured after 72 hrs by immunoblot analysis; type: cell-based; conditions: dose 1-10 µM
HCCLM3 [27] = assay: Antiproliferative activity against NMN-treated human HCCLM3 cells incubated for 120 hrs by MTT assay; type: functional, cell-based
Hep 3B2 [28] = assay: Antimigratory activity in human Hep3B cells measured upto 24 hrs by transwell assay; type: functional, cell-based; conditions: dose 1-10 µM
HCCLM3 [29] = assay: cells; conditions: Homo sapiens, HCCLM3, 120 h
Hep 3B2 [30] = assay: Antimigratory activity in human Hep3B cells measured upto 24 hrs by wound healing assay; type: functional, cell-based; conditions: dose 1-10 µM
[31] = molecular target: T2, Nicotinamide phosphoribosyltransferase; assay: Inhibition of recombinant NAMPT (unknown origin) by fluorescence based assay
Target sequence in this assay (P43490 whole entry): as the sequence (P43490 whole entry, looked up) above

Hep 3B2 [32] = assay: Downregulation of NAMPT level in human Hep3B cells at 1 to 10 uM measured after 72 hrs by immunoblot analysis; type: functional, cell-based; conditions: dose 1-10 µM
Hep 3B2 [33] = assay: Induction of cell cycle arrest at G2/M phase in human Hep3B cells at 5 uM measured after 72 hrs by PI/RNase staining based flow cytometry (reference value: 11.37 %); type: functional
Hep 3B2 [34] = assay: Induction of cell cycle arrest at G2/M phase in human Hep3B cells at 1 uM measured after 72 hrs by PI/RNase staining based flow cytometry (reference value: 11.37 %); type: functional
Hep 3B2 [35] = assay: Induction of cell cycle arrest at G2/M phase in human Hep3B cells at 10 uM measured after 72 hrs by PI/RNase staining based flow cytometry (reference value: 11.37 %); type: functional
Hep 3B2 [36] = assay: Induction of apoptosis in human Hep3B cells assessed as early apoptotic cells at 5 uM measured after 72 hrs by Annexin V-FITC/PI staining based flow cytometry (reference value: 2.13 %); type: functional
Hep 3B2 [37] = assay: Induction of apoptosis in human Hep3B cells assessed as late apoptotic cells at 5 uM measured after 72 hrs by Annexin V-FITC/PI staining based flow cytometry (reference value: 1.05 %); type: functional
Hep 3B2 [38] = assay: Induction of cell cycle arrest at S phase in human Hep3B cells at 5 uM measured after 72 hrs by PI/RNase staining based flow cytometry (reference value: 31.90 %); type: functional
[39] = Toxicity in BALB/c nude mouse xenografted with human HCCLM3 cells assessed as body weight loss at 40 to 80 mg/kg, ip for 27 days; type: organism-based; conditions: in vivo, 648 h, dose 40-80 mg/kg, time 27 day
[40] = molecular target: Bromodomain testis-specific protein (Homo sapiens, UniProt Q58F21); assay: Inhibition of BRDT BD1 (unknown origin) incubated for 120 mins by TR-FRET assay

Chain of Bromodomain-containing protein 3 (Q15059 whole entry): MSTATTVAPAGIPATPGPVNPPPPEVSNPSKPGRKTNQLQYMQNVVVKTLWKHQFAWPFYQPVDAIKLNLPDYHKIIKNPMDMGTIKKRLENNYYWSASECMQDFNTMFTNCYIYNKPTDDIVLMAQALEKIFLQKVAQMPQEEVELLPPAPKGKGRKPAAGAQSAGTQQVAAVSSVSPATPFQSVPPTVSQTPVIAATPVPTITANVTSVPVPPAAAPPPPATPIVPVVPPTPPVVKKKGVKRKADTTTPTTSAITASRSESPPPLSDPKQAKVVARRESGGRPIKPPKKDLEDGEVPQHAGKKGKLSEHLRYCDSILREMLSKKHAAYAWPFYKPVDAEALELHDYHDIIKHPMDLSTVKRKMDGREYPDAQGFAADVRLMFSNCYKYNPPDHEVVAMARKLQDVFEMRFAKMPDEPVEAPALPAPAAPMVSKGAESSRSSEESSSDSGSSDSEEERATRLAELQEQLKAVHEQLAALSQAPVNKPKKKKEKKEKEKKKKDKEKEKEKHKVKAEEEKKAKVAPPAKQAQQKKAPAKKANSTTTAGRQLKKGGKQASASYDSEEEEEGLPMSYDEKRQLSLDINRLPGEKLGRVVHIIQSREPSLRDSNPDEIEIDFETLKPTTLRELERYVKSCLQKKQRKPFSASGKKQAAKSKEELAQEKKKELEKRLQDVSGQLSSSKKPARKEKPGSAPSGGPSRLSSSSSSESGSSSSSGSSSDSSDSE
Chain of Bromodomain-containing protein 2 (P25440 whole entry): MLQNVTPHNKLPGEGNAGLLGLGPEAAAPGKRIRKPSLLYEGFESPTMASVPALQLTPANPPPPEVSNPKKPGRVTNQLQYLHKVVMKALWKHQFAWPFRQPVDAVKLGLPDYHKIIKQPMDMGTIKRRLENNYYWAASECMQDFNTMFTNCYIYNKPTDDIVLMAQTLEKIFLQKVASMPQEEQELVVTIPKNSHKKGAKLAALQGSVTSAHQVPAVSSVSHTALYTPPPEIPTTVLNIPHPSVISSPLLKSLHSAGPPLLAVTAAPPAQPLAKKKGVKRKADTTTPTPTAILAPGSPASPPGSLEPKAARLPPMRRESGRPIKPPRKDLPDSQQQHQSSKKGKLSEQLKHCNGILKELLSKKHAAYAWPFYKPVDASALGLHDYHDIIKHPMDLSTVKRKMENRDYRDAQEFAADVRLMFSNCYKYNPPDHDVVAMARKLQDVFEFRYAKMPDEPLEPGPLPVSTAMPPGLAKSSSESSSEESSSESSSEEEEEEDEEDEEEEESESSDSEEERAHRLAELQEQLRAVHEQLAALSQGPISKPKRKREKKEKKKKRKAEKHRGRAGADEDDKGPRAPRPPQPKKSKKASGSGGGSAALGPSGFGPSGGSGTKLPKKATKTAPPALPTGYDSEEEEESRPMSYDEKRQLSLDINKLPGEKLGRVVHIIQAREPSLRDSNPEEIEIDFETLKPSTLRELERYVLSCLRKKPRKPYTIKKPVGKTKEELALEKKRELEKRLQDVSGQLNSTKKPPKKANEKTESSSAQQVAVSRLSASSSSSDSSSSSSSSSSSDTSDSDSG

## Cc1sc2c(c1C)C(c1ccc(Cl)cc1)=N[C@@H](CC(=O)NCCCNC(=O)/C=C/c1cccnc1)c1nnc(C)n1-2
Hep 3B2 [1]
  viability at 1 µM: 83.9%
Hep 3B2 [2]
  Activity: 2.43%
HCCLM3 [3]
  Activity: inactive
Hep 3B2 [4]
  Activity: 71.08%
Hep 3B2 [5]
  Activity: 18.21%
[6]
  IC50: 58 nM
HCCLM3 [7]
  inhibition in vivo at 80 mg/kg: 58.2%
[8]
  inhibition: Active
HCCLM3 [9]
  Activity: Dose-Dependent Effect
[10]
  inhibition: Active
[11]
  IC50: 41 nM
HCCLM3 [12]
  Activity: inactive
[13]
  IC50 at 120 h: 9510 nM
[14]
  IC50: 58 nM
Hep 3B2 [15]
  viability at 5 µM: 74.7%
Hep 3B2 [16]
  Activity: inactive
HCCLM3 [17]
  Activity: Active
Hep 3B2 [18]
  Activity: 4.58%
Hep 3B2 [19]
  Activity: inactive
Hep 3B2 [20]
  Activity: inactive
[21]
  IC50: 122 nM
[22]
  IC50: 489 nM
Hep 3B2 [23]
  Activity: 24.18%
[24]
  inhibition: Active
Hep 3B2 [25]
  IC50: 2370 nM
[26]
  inhibition: Active
HCCLM3 [27]
  Activity: inactive
Hep 3B2 [28]
  Activity: Dose-Dependent Effect
HCCLM3 [29]
  IC50: 5440 nM
Hep 3B2 [30]
  Activity: Dose-Dependent Effect
[31]
  IC50: 35 nM
Hep 3B2 [32]
  Activity: Active
Hep 3B2 [33]
  Activity: 8.35%
Hep 3B2 [34]
  Activity: 9.76%
Hep 3B2 [35]
  Activity: 5.54%
Hep 3B2 [36]
  Activity: 14.49%
Hep 3B2 [37]
  Activity: 6.24%
Hep 3B2 [38]
  Activity: 20.57%
[39]
  Activity: Non-Toxic
[40]
  IC50: 354 nM

From ChEMBL document CHEMBL5500370, “Discovery of potent and novel dual NAMPT/BRD4 inhibitors for efficient treatment of hepatocellular carcinoma” (Eur J Med Chem, 2024)
